Test results published in patent US20090227572A1, “TREATMENT OF DIABETIC WOUNDS AND PERIPHERAL NEUROPATHIES” (Cytrx Corporation, priority 2007, published 2009).

Columns and labels:
[1] = system: Homozygous, diabetic mice; assay: Wound healing in homozygous diabetic mice, systemic or topical administration (Example 2); format: in vivo; details: topical administration, 4% w/v aqueous solution, FIG. 7
Method: Homozygous, diabetic mice described above, and wounded in the manner described above in Example 1, were treated by topical administration of iroxanadine or arimoclomol. A 4% w/v aqueous solution of arimoclomol were separately administered topically to the wounded position. […] dosage of iroxanadine was at 10 mg/kg IP, b.i.d., a relatively low concentration.

[2] = system: BKS.Cg-m^+/+ Lepr^db/J homozygous mice; assay: Wound healing in diabetic db/db mice, daily oral dosing (Example 1); format: in vivo
Text: Seventy male BKS.Cg-m^+/+ Lepr^db/J homozygous mice were housed and handled for seven (7) days prior to commencement of the procedure for acclimation purposes. The mice weighed 26.1-41.2 g on Day 0, at the age of 8 weeks. As control, twenty male BKS.Cg-m^+/− Lepr^db/J heterozygous mice were handled similarly. These mice weighed 19.6-25.1 g on Day 0, at the age of 8 weeks. Mice were divided into Groups (1) to (9), each group consisting of 10 mice.
On Day 0, two full-thickness wounds were made on each mouse in Groups A-I (n=80). […]
Immediately following the generation of the skin wound, the original wound was traced by using a fine point maker to outline the perimeter of the wound onto transparency paper (the mouse was immobilized using isoflurane anesthesia for this procedure), and wound size was then traced every 3 days. […] Outlines were digitized, quantified and analyzed using computer imaging software as described below.
The mice began daily dosing as detailed in Table 1 on the day of wounding. The mice continued to receive daily treatment until wound closure as determined by the study director and the client. Blood glucose levels were measured by glucometer prior to the first scheduled dosing and weekly thereafter-using blood collected by tail nick. Body weights were measured weekly beginning prior to treatment. […]
Raw data was reviewed (read and understood) for accuracy. […]

[3] = rat, subchronic studies; cited from earlier work
[4] = mice, previously determined; cited from earlier work
[5] = Morbidity, mortality and body weights in the wound healing study (Example 1); format: in vivo, mice
Method: The mice began daily dosing as detailed in Table 1 on the day of wounding. The mice continued to receive daily treatment until wound closure as determined by the study director and the client. Blood glucose levels were measured by glucometer prior to the first scheduled dosing and weekly thereafter-using blood collected by tail nick. Body weights were measured weekly beginning prior to treatment. Clinical observations were conducted weekly.

[O-][n+]1cccc(/C(Cl)=N/OC[C@H](O)CN2CCCCC2)c1 [arimoclomol, N-[2-hydroxy-3-(1-piperidinyl)propoxy]-pyridine-1-oxide-3-carboximidoyl chloride]
wound healing over time [1]: clearly showed an accelerated healing of wounds
wound closure rate ([2]; rate analysed for Days 0-8 (with ethanol) and Days 9-12 (no ethanol), FIG. 5E): statistically relevant increase in the wound closure rate
odds of closure of both wounds (hazard ratio, proportional hazard model) ([2]; relative to homozygous diabetic control Group (3), iroxanadine 10-200 mg/kg Groups (4)-(8), arimoclomol 200 mg/kg Group 9, QD PO, FIG. 4): appeared to be effective in increasing the odds of wound closure

c1cncc(C2=NOCC(CN3CCCCC3)N2)c1 (centres unmarked) [iroxanadine, 5,6-dihydro-5(1-piperidinyl)-methyl-3-(3-pyridyl)-4H-1,2,4-oxadiazine]
no observed adverse effect level (NOAEL) [3]: 400 mg/kg
acute oral LD50 [4]: 3800 mg/kg
tolerability of the highest dose relative to maximum tolerated dose (MTD) ([5]; 200 mg/kg QD PO, administered with EtOH): may be above the maximum tolerated dose (MTD) and approaching LD50
unplanned mice deaths outside of the study protocol ([5]; highest dose 200 mg/kg QD PO, Groups (2) and (8), formulation contained EtOH Days 0-8): Eight of the nine deaths
effect on body weight ([5]; mice, daily until wound closure, FIG. 1A-B): No significant effect on body weight was observed except in diabetic animals treated with the highest dose
